The subject of this data set is EG7 cells.

As to `CC[C@H](C)[C@H](NC(=O)[C@@H](NC(=O)[C@@H](N)CO)[C@@H](C)CC)C(=O)N[C@@H](CC(N)=O)C(=O)N[C@@H](Cc1ccccc1)C(=O)N[C@@H](CCC(=O)O)C(=O)N[C@@H](CCCCN)C(=O)N[C@@H](CC(C)C)C(=O)O` [OVA-I peptide], the “cytotoxic activity of splenocytes against EG7” value is “only low cytotoxic activity was induced”.

For the origin of these results see US9045556B2, “Therapeutic agent for cancer” (NEC Corporation, priority 2007, dated 2015).
